What was measured:
Assay type in all cases: functional, cell-based
Settings in all cases: 72 h
[1] = test system: Cortical neurone; assay: Induction of neurite outgrowth in Wistar rat Cortical neuron cells assessed as increase in neurite length incubated for 3 days by DAPI staining based high-content screening method
[2] = test system: Cortical neurone; assay: Induction of neurite outgrowth in Wistar rat Cortical neuron cells assessed as increase in number of branch points incubated for 3 days by DAPI staining based high-content screening method
[3] = test system: Cortical neurone; assay: Induction of neurite outgrowth in Wistar rat Cortical neuron cells assessed as increase in neurite number incubated for 3 days by DAPI staining based high-content screening method

Row | Structure (SMILES) | EC50 [1] | EC50 [2] | EC50 [3]
1 | C[C@@H](N)Cn1ccc2cc(OCc3ccccc3F)ccc21 | 10 nM | < 10 nM | < 10 nM
2 | C[C@H](Cn1ccc2nc(OCc3ccccc3)ccc21)N(C)C | < 10 nM | < 10 nM | < 10 nM
3 | C[C@H](Cn1ccc2cc(OCc3ccc(F)cc3)ccc21)N(C)C | < 10 nM | < 10 nM | < 10 nM
4 | C[C@@H](N)Cn1ccc2cc(OCc3ccc(F)cc3)ccc21 | 10 nM | 10 nM | 10 nM
5 | CN[C@H](C)Cn1ccc2cc(OCc3ccccc3)ccc21 | < 10 nM | < 10 nM | < 10 nM
6 | CCN(CC)[C@H](C)Cn1ccc2cc(OCc3ccccc3)ccc21 | < 10 nM | < 10 nM | < 10 nM
7 | C[C@H](Cn1ccc2cc(OCc3ccccc3)ccc21)N(C)C | < 10 nM | 10 nM | 10 nM
8 | C[C@H](Cn1ccc2cc(OCc3cccc(F)c3)ccc21)N(C)C | < 10 nM | < 10 nM | < 10 nM
9 | C[C@H](Cn1ccc2cc(OCc3ccccc3)ccc21)N1CCCC1 | < 10 nM | 10 nM | < 10 nM
10 | C[C@@H](N)Cn1ccc2cc(OCc3cccc(F)c3)ccc21 | < 10 nM | < 10 nM | 10 nM
11 | C[C@H](Cn1ccc2cc(OCc3ccccc3F)ccc21)N(C)C | < 10 nM | < 10 nM | < 10 nM

Source: ChEMBL document CHEMBL5365504, “Psychoplastogens: A Novel Therapeutic Approach for Neurological Diseases and Disorders” (ACS Med Chem Lett, 2023)
